Results on two compounds are retold here after patent publication US12139729B2, “Neurodegenerative disorders” (priority 2013, dated 2024).

Like-named read-outs stand apart in the source and are kept apart here. Residues, ends and D or L forms follow the SMILES beside them. No end group written: not given here.

A word on the viability: it is a read-out of living cells in per cent, often relative to untreated cells.

Data set [1] can be described thus: Sulforhodamine B (SRB) cell viability assay. In kind it is cell-based. The note with it: 1 hour. As to the method: Wild-type PC12 cell were provided by Sigma-Aldrich (St. Louis, MO). The culture was routinely plated in 100 mm dishes (Corning) coated with collagen (2 μg/cm^2) and maintained in growth medium with Minimum Essential Medium Eagle (MEM) supplemented with heat-inactivated 10% horse serum (HS) and 5% foetal bovine serum (FBS), 10 mM HEPES, 2 mM L-Glutamine and 1:400 Penicillin/streptomycin solution. Cells were maintained at 37° C. in a humidified atmosphere 5% CO2 and the medium was replaced every 2 days. For splitting, cells were dislodged from the dish using a pipette with medium, with a portion of these replated onto new cultured dishes. Cells were used between passages 12 and 25.
The cell viability assay used was the sulforhodamine B (SRB) colorimetric assay for toxicity screening. The day before of the experiment cells were seeded onto collagen-coated 96-well plates in a concentration of 40,000 cells/well. Cell concentration was determined by the Fuchs-Rosenthal chamber. […] After treatment, medium was replaced and cells were fixed by adding 100 μl of 10% Trichloroacetic Acid (TCA) for 1 h at 4° C. Thereafter, cells were washed with H2O and stained with 100 μl of a 0.057% SRB solution in 1% Acetic acid (HAc) for 30 minutes at room temperature. After staining cells were washed with 1% HAc for removing the excess of SRB and then incubated with 200 μl of 10 mM Tris base (pH 10.5) and shake it for 5 minutes to solubilise the protein-bound dye. Measurement of the absorbance took place in a VMax Kinetic Microplate Reader (Molecular Devices) at 490 nm.

Data set [2] deals with cortical networks in rat brain slices. Briefly: Voltage-sensitive dye imaging (VSDI) of thalamocortical brain slices. Type of data set: cell-based, rat (Wistar). As to conditions: for T30-induced increase of rise-phase slope (velocity of propagation): n=3. From the text: Using this technique the inventors can obtain comprehensive sets of data on neuronal population activity such as (a) the intensity of the response in any given area, from which (b) the spread of elicited neuronal assemblies can be measured, and from this parameter (c) the velocity of propagation of the activity wave-front from the point of initiation (d) measured as the slope of the spread. Each of these parameters have been measured independently for two experiments carried out so far: i) an investigation of the effects induced by increasing concentrations (0.5, 0.75, 1 & 5 μM) of T30 on cortical population activity and responsiveness, and 2) assessing the antagonistic effects of NBP-14 on a single, relatively high (1 uM), T30 concentration. • Technique used: voltage-sensitive dye imaging (Di-4-ANEPPS) of thalamocortical (TC) p14 rat (Wistar) brain slices. • Stimulation paradigm: 40 Hz (consistent with thalamo-cortical recurrent stimulation) paired pulse stimulation. • Perfusion paradigm: epochs carried out in two phases—for every drug perfusion (say: control, 0.1 uM T30 etc.), the new perfusion was applied and left to perfuse for 15 minutes before starting the recording period (15 minutes also), such that the drug had time to reach its actual concentration and induce its concentration-dependent effects once recording. Meaning one perfusion epoch lasted 30 minutes, with the recording only taking in account the last 15 minutes of its respective perfusion epoch. Detailed Methods Brain Slice Preparation
Male Wistar rats (14-17 day old; 15 individual animals in total) were anaesthetised using isoflurane: 10 mL 100% w/w isoflurane was applied to the cotton bed at the bottom of an anaesthesia chamber (glass box 20×15×15 cm) where rats were then placed for ˜45 seconds until onset of anaesthesia. The hind paw of each anaesthetised rat was pinched to check for appropriate depth of anaesthesia. Once anaesthesia was confirmed, rats were quickly decapitated before immersing the brain in oxygenated ice-cold artificial cerebrospinal fluid (‘slicing’ aCSF in mmol: 120 NaCl, 5 KCl, 20 NaHCO3, 2.4 CaCl2), 2 MgSO4, 1.2 KH2PO4, 10 glucose, 6.7 HEPES salt and 3.3 HEPES acid; pH: 7.1) for 7-8 minutes, the time taken to cut the brain into slices. Para-saggital sections (400 μm thick) were cut from a block of brain containing both Thalamus (VPN) and primary somato-sensory cortex (barrel field) using a Vibratome (Leica VT1000S) and transferred to a bubbler pot containing aCSF at room temperature (‘recording’ aCSF in mmol: 124 NaCl, 3.7 KCl, 26 NaHCO3, 2 CaCl2, 1.3 MgSO4, 1.3 KH2PO4 and 10 glucose; […]), which was identical to that which was used during electrophysiological recordings and VSDI. Slices were left in oxygenated (95% O2-5% CO2) ‘recording’ aCSF to recuperate for at least 1 hour before VSD staining.
Slices were placed in a dark, high humidity chamber filled with aCSF bubbling with 95% O2-5% CO2. The dye solution (4% 0.2 mM styryl dye pyridinium 4-[2-[6-(dibutylamino)-2-naphthalenyl]-ethenyl]-1-(3-sulfopropyl)hydroxide (Di-4-ANEPPS, Invitrogen, Paisley, UK) (Tominaga et al., 2000) in aCSF 46%, fetal bovine serum 46%, DMSO 3.5% and cremophore EL 0.4%) was then applied to the slices as previously described (Badin et al., 2013). When starting VSD recordings, slices were placed in the recording bath on a small piece of filter paper to keep slice alive and was weighed down appropriately using a home-made plastic grid placed atop the slice. Because of the fluorescent VSD, all of the handling of slices during and after staining with Di-4-ANEPPS was carried out in almost complete darkness in order to keep the detrimental effects of photo-toxicity and bleaching to a minimum. VPN (where stimulating electrodes were placed) was identified with respect to distance from the tip of the hippocampus and to the side of the internal capsule. […]

Take `CSCC[C@@H]1NC(=O)[C@H](Cc2ccc(O)cc2)NC(=O)[C@H](CO)NC(=O)[C@H](CO)NC(=O)[C@H](Cc2c[nH]c3ccccc23)NC(=O)[C@H](CCCNC(=N)N)NC(=O)[C@H](Cc2c[nH]cn2)NC(=O)[C@H](Cc2ccccc2)NC(=O)[C@H](CCC(=O)O)NC(=O)[C@H](C)NC(=O)[C@H](CCCCN)NC(=O)[C@H](Cc2c[nH]c3ccccc23)NC(=O)[C@H](Cc2c[nH]cn2)NC(=O)[C@H](C(C)C)NC1=O` [Cyclic T14] (cyclo(AEFHRWSSYMVHWK)): the viability amounted to 88.6 ± 8.79% in data set [1] (T30 10 μM + Cyclic T14 100 nM, read-out: cell viability, T30 combined with Cyclic T14); 94.5 ± 7.4% in data set [1] (cell viability, β-amyloid combined with Cyclic T14, β-Amyloid 10 μM + Cyclic T14 100 nM); 88.5 ± 10% in data set [1] (cell viability, β-amyloid combined with Cyclic T14, β-Amyloid (10 μM) + Cyclic T14 0.5 nM); 97.3 ± 9.57% in data set [1] (cell viability, β-amyloid combined with Cyclic T14, β-Amyloid (10 μM) + Cyclic T14 1 nM); 102 ± 8.53% in data set [1] (cell viability, β-amyloid combined with Cyclic T14, β-Amyloid (10 μM) + Cyclic T14 10 nM); 102 ± 14% in data set [1] (cell viability, β-amyloid combined with Cyclic T14, β-Amyloid (10 μM) + Cyclic T14 50 nM). The viability at 10 µM in data set [1] (cell viability, β-amyloid combined with Cyclic T14, β-Amyloid (10 μM) + Cyclic T14 'moo' (nM)) is 104 ± 6.34%. For the same compound, the viability at 1 h, 0.1 µM in data set [1] (rat, PC12 cells (wild-type), Cyclic T14 alone 100 nM, PC12) is 98.8 ± 15.2%. Besides, the viability at 1 h, 0.7 µM in data set [1] (rat, PC12 cells (wild-type), Cyclic T14 alone 700 nM, PC12) came to 107 ± 19.9%. Besides, in data set [1] (rat, PC12 cells (wild-type), Cyclic T14 alone 1 μM, PC12), the viability at 1 h, 1 µM came to 105 ± 10.9%. Also, the viability at 1 h, 100 µM in data set [1] (rat, PC12 cells (wild-type), Cyclic T14 alone 100 μM, PC12) stood at 93.6 ± 11.6%. In addition, the “modulatory effects of NBP-14 on its own” value in data set [2] is given as “inert”. Further, the “modulatory effects of T30 on neuronal populations under NBP-14” value in data set [2] (300 nM NBP-14, T30 1000 nM) is “reduced back to control levels”. The “T30-induced increase of rise-phase slope (velocity of propagation)” value is recorded as “slowed down” in data set [2] (T30 1 μM + 100 nM NBP-14 perfusion) and “reversed back to baseline levels” in data set [2] (T30 1 μM + 300 nM NBP-14 perfusion).
As for “KAEFHRWSSYMVHWKNQFDHYSKQDRCSDL [T30, reference compound]”, in data set [1] (10 μM, PC12, read-out: cell viability, peptide alone), the viability at 10 µM amounted to 68.4 ± 3.1%. For the same compound, in data set [2] (5 μM T30), the “maximum decrease in propagation speed (slope of the rise phase)” value was found to be 3.5 fold. Also, the “spread of cortical assemblies” value in data set [2] (T30 0.5, 0.75, 1 μM, affected only at 5 uM) is “not significantly affected”. The “intensity of fluorescence given off by active pixels” value in data set [2] (increasing T30 concentration (0.5-5 μM)) is on record as “diminishes”.
